Measured values reported in patent US7183320B2, “Benzoylsulfonamides and sulfonylbenzamidines for use as antitumour agents” (Eli Lilly and Company, priority 2002, dated 2007).

Assays:
[1] = test system: MURINE COLON ADENOCARCINOMA-38; assay: Early stage murine colon adenocarcinoma-38 (Table II); format: in vivo; settings: BDF1 male mice
Text: (§1) Conventional Murine Tumor and Human Tumor Xenouraft Assays
Inhibition of tumors transplanted into mice is an accepted procedure for studying the efficacy of antitumor agents (Corbett, et al., In vivo Methods for Screening and Preclinical Testing; Use of rodent solid tumors for drug discovery., In: Anticancer Drug Development Guide: Preclinical Screening, Clinical Trials, and Approval, B. Teicher (ed), Humana Press Inc., Totowa, N.J., Chapter 5, pages 75–99 (1997); (Corbett, et al., Int., J. Parmacog., 33, Supplement, 102–122 (1995)). Murine tumors or human xenographs were implanted essentially as described by Corbett in In vivo Methods for Screening and Preclimical Testing; Use of rodent solid tumors for drug discovery. Briefly, the murine tumor or human xenograph was implanted subcutaneously using either 12-gauge trocar implants or counted number of cells. The location for the trocar insertion is midway between the axillary and inguinal region along the side of the mouse. The trocar is slipped approximately ¾ of an inch subcutaneously up toward the axilla before discharging the tumor fragment, and pinching the skin as the trocar is removed., Alternatively, human tumor cells prepared from a […] of donor tumors (5×10^6 cells) were implanted subcutaneously in a hind-leg of a male or female nude mouse (Charles River). Either a test compound in vehicle or vehicle alone was administered by intravenous bolus injection (iv), intraperitoneal injection (ip), or oral gavage (po). Each treatment group, as well as a group of untreated control animals, consisted of five animals per group in each experiment. Subcutaneous tumor response was monitored by tumor volume measurement performed twice each week over the course of the experiment (60–120 days). Body weights were taken as a general measure of toxicity. The subcutaneous tumor data were analyzed by determining the median tumor weight for each treatment group over the course of the experiment and calculating the tumor growth delay as the difference in days for the treatment versus the control tumors to reach a volume of either 500 or 1000 mm^3.
(§2) The compound of Example 110 was tested against a variety of murine and human tumors substantially as described supra. The parameters measured in each experiment are summarized in the following paragraphs. • Tumor Weight(mg)=(a×b^2)/2 where a=tumor length (mm) and b=tumor width (mm). • Tumor Growth Delay=T−C where T is the median time (days) required for the treatment group tumors to reach a predetermined size, and C is the median time (days) for the control group tumors to reach the same size. Tumor-free survivors are excluded from this calculation, and are tabulated separately (Tumor Free).
[formula] • where Tumor Growth Delay is as previously defined and Td is tumor volume doubling time (days), estimated from the best fit straight line from a log-linear growth plot of the control group of tumors in exponential growth (100–800 mg range) • % T/C mass—The treatment and control groups are measured when the control group tumors reach approximately 700 to 1200 mg in size (median group). The median tumor weight of each group is determined (including zeros). The T/C value in percent is an indication of antitumor effectiveness. A T/C≦42% is considered significant antitumor activity. A T/C<10% is considered to indicate highly significant antitumor activity. • Body Weight Loss Nadir—A body weight loss nadir (mean of group) of greater than 20% or drug deaths greater than 20% are considered to indicate an excessively toxic dosage in single course trials. • Activity Rating—the Activity Rating is derived from the Log Kill according to the following table: […]

[2] = test system: MURINE SQUAMOUS LUNG LC-12; assay: Early stage murine squamous lung LC-12 (Table VI); format: in vivo; settings: Balb/C female mice
Text: as §1
Briefly, the murine tumor or human xenograph was implanted subcutaneously using either 12-gauge trocar implants or counted number of cells. The location for the trocar insertion is midway between the axillary and inguinal region along the side of the mouse. The trocar is slipped approximately ¾ of an inch subcutaneously up toward the axilla before discharging the tumor fragment, and pinching the skin as the trocar is removed., Alternatively, human tumor cells prepared from a […] of donor tumors (5×10^6 cells) were implanted subcutaneously in a hind-leg of a male or female nude mouse (Charles River). Either a test compound in vehicle or vehicle alone was administered by intravenous bolus injection (iv), intraperitoneal injection (ip), or oral gavage (po). Each treatment group, as well as a group of untreated control animals, consisted of five animals per group in each experiment. […] Body weights were taken as a general measure of toxicity. The subcutaneous tumor data were analyzed by determining the median tumor weight for each treatment group over the course of the experiment and calculating the tumor growth delay as the difference in days for the treatment versus the control tumors to reach a volume of either 500 or 1000 mm^3.
as §2, with “The” for “The compound of Example 110 was tested against a variety of murine and human tumors substantially as described supra. The”
The median tumor weight of each group is determined (including zeros). The T/C value in percent is an indication of antitumor effectiveness.

[3] = total dose 272 mg/kg IV: 20 mg/kg day 3, 40 day 4, 106 mg/kg/injection QD days 5–6
[4] = total dose 920 mg/kg IV: 40 mg/kg day 3, 80 day 4, 160 mg/kg/injection QD days 5–9
[5] = total dose 1200 mg/kg IV: 80 mg/kg day 3, 160 day 4, 240 day 5, 120 mg/kg/injection BID days 7–9
[6] = total dose 640 mg/kg: 160 mg/kg/injection IV on days 4, 6, 8, and 10
[7] = total dose 1391 mg/kg: 107 mg/kg/injection IV every second day, days 4 to 28

O=C(NS(=O)(=O)c1ccccc1)c1ccc(Cl)cc1Cl [Example 110, N-[2,4-dichlorobenzoyl]phenylsulfonamide]
% BODY WT LOSS AT NADIR [1, 3]: +3.1%
% T/C MASS [1, 3]: 0%
ACTIVITY RATING [1, 3]: ++++ (HIGHLY ACTIVE >2.8)
DRUG DEATHS [1, 3]: 0/5
GROWTH DELAY (DAYS) [1, 3]: All cures
LOG KILL [1, 3]: >4.5
TUMOR FREE AT DAY 144 [1, 3]: 5/5
% BODY WT LOSS AT NADIR [1, 4]: +7.7%
% T/C MASS [1, 4]: 0%
ACTIVITY RATING [1, 4]: ++++ (HIGHLY ACTIVE >2.8)
DRUG DEATHS [1, 4]: 0/5
GROWTH DELAY (DAYS) [1, 4]: All cures
LOG KILL [1, 4]: >4.5
TUMOR FREE AT DAY 144 [1, 4]: 5/5
% BODY WT LOSS AT NADIR [1, 5]: −5.2%
% T/C MASS [1, 5]: 0%
ACTIVITY RATING [1, 5]: ++++ (HIGHLY ACTIVE >2.8)
GROWTH DELAY (DAYS) [1, 5]: All cures
LOG KILL [1, 5]: >4.5
TUMOR FREE AT DAY 144 [1, 5]: 6/6
% BODY WT LOSS AT NADIR [2, 6]: 0%
% T/C MASS [2, 6]: 14%
ACTIVITY RATING [2, 6]: ++ (1.3–1.9)
DRUG DEATHS [2, 6]: 0/4
GROWTH DELAY [2, 6]: 12.5 days
LOG KILL [2, 6]: 1.7
TUMOR FREE AT DAY 174 [2, 6]: 0/4
% BODY WT LOSS AT NADIR [2, 7]: +1.6%
% T/C MASS [2, 7]: 20%
ACTIVITY RATING [2, 7]: +++ (2.0–2.8)
DRUG DEATHS [2, 7]: 0/5
GROWTH DELAY [2, 7]: 15.5 days
LOG KILL [2, 7]: 2.1
TUMOR FREE AT DAY 174 [2, 7]: 0/5
